The values below come from EP4063856A1, “METHODS AND COMPOSITIONS FOR IN VITRO SCREENING OF PROTEASE INHIBITORS” (Universiteit Antwerpen, priority 2021, dated 2022).

One experiment has as its target T1, TMPRSS2 in prostasomes (Homo sapiens, UniProt O15393).
T1 construct: Prostasomes or extracellular vesicles were isolated from semen samples using ultracentrifugation and size-exclusion chromatography; from tissue; host or cells: prostasomes (extracellular vesicles) from pooled semen samples
In words: Inhibitor screening assay with intact prostasomes (trypsin-like activity, Boc-QAR-AMC substrate, fluorescence). In kind it is biochemical. The following applies: 15 minutes of incubation at 37°C, 30 µM Boc-QAR-AMC, read-out: Inhibitory effect (%): percentage of inhibited trypsin-like activity.

The target of experiment [1] is T2, recombinant TMPRSS2 (rTMPRSS2) (Homo sapiens, UniProt O15393).
T2 construct: The expression vector, encoding the serine protease domain of TMPRSS2, a His-tag and a secretion signal; His-tag; secretion signal; made in house; host or cells: HEK293T cells, transient transfection; unpurified cell medium used
The experiment in a line: Inhibitor screening assay with medium containing recombinant TMPRSS2 (trypsin-like activity, Boc-QAR-AMC substrate, fluorescence). The settings on record: 15 minutes of incubation at 37°C, 30 µM Boc-QAR-AMC, read-out: Inhibitory effect (%): percentage of inhibited trypsin-like activity. In kind it is biochemical.
Method: Cell medium containing the TMPRSS2 serine protease domain was collected 4 days post-transfection and trypsin-like activity was determined as described above.
On the one hand, intact prostasomes and on the other hand, medium containing recombinant TMPRSS2 (rTMPRSS2) were used. The prostasome suspension and rTMPRSS2 were diluted so that less than 10% substrate conversion was observed after 30 minutes of measurement and trypsin-like activities of both preparations were similar (approximately 0.025 U/L). The inhibitors were added to the samples in concentrations of 10 µM, 1 µM and 100 nM, followed by 15 minutes of incubation at 37°C. The substrate, Boc-QAR-AMC (Bachem), was added in a final concentration of 30 µM. This concentration was determined to be the Michaelis-Menten constant for Boc-QAR-AMC and recombinant TMPRSS2. Fluorescence was measured kinetically at 37°C for 20 minutes on a Tecan F200 multi-plate reader at an excitation and emission wavelength of 380 nm and 465 nm, respectively. The inhibitory effect was calculated by dividing the trypsin-like activity without inhibitor by the activity with inhibitor and was expressed as percentage inhibition.

The structures appear in SMILES notation. Counter-ions that a name gives are not always drawn.

T2 sequence (O15393 256-492 limits assumed): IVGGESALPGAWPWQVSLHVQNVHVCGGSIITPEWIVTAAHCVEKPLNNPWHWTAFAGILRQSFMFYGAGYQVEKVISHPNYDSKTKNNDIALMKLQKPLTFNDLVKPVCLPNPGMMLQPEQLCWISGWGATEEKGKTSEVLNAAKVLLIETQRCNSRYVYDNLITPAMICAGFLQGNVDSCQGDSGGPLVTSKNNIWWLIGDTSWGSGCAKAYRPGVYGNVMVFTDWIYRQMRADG
T1 sequence (O15393 256-492 limits assumed): as above
T1 sequence (O15393 1-255 limits assumed): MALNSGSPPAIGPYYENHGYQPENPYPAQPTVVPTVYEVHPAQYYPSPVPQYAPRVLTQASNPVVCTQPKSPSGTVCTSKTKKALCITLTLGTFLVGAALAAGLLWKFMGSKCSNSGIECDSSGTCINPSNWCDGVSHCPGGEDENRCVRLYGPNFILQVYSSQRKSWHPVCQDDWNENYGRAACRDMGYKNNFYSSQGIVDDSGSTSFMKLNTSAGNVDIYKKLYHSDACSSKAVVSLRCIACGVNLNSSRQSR
Method for TMPRSS2 in prostasomes: Trypsin-like activity in the intact prostasomes was determined using 100 µM Boc-QAR-AMC (Bachem) in 50 mM Tris 120 mM NaCl pH 8,0. Fluorescence was measured kinetically at 37°C for 20 minutes on a Tecan F200 multi-plate reader at an excitation and emission wavelength of 380 nm and 465 nm, respectively.
On the one hand, intact prostasomes and on the other hand, medium containing recombinant TMPRSS2 (rTMPRSS2) were used. The prostasome suspension and rTMPRSS2 were diluted so that less than 10% substrate conversion was observed after 30 minutes of measurement and trypsin-like activities of both preparations were similar (approximately 0.025 U/L). The inhibitors were added to the samples in concentrations of 10 µM, 1 µM and 100 nM, followed by 15 minutes of incubation at 37°C. The substrate, Boc-QAR-AMC (Bachem), was added in a final concentration of 30 µM. […] Fluorescence was measured kinetically at 37°C for 20 minutes on a Tecan F200 multi-plate reader at an excitation and emission wavelength of 380 nm and 465 nm, respectively. The inhibitory effect was calculated by dividing the trypsin-like activity without inhibitor by the activity with inhibitor and was expressed as percentage inhibition.

For `CN(C)C(=O)COC(=O)Cc1ccc(OC(=O)c2ccc(NC(=N)N)cc2)cc1` [Camostat, camostat mesylate], the inhibition at 0.1 µM at TMPRSS2 in prostasomes (100 nM inhibitor) is 99%; in experiment [1] (100 nM inhibitor) it was 73%. Further, the inhibition at 1 µM at TMPRSS2 in prostasomes (1 µM inhibitor) was determined as 100%; in experiment [1] (1 µM inhibitor), 88%. In addition, the inhibition at 10 µM (on TMPRSS2 in prostasomes (10 µM inhibitor); in experiment [1] (10 µM inhibitor)) was 100% throughout.
